Source: ChEMBL document CHEMBL1145225, “Antitumor agents. Part 236: Synthesis of water-soluble colchicine derivatives” (Bioorg Med Chem Lett, 2005)
≈ marks a conversion by molar mass, not a printed value.

Key:
[1] = In vitro cytotoxic activity against human ovarian carcinoma (1A9) tumor cell line
[2] = In vitro cytotoxic activity against human lung carcinoma (A549) tumor cell line; format: cell-based
[3] = (§1) In vitro cytotoxic activity against human epidermoid carcinoma of the nasopharynx (KB) tumor cell line
[4] = test system: KB-V (P-gp-expressing MDR KB subclone); assay: Percentage inhibition of multi drug resistant KB subclone growth expressing P-glycoprotein (KB-V) at 4 ug/mL concentration was determined; details: for inhibition at 4 µg/mL: Homo sapiens, KB-V
KB = assay: as §1; format: functional, cell-based

| Compound | IC50 [1] | IC50 [2] | IC50 [3] | Inhibition [4] | inhibition at 4 µg/mL [4] | IC50 (KB) |
| --- | --- | --- | --- | --- | --- | --- |
| COc1cc2c(c(OC)c1OC)-c1ccc(=O)c(O)cc1[C@@H](NC(C)=O)CC2 [COLCHICEINE] | 0.003 µg/mL (≈ 0.00778 µM) | 0.002 µg/mL (≈ 0.00519 µM) | 0.003 µg/mL (≈ 0.00778 µM) |  |  |  |
| COc1cc2c(c(OC)c1OC(=O)CN(C)C)-c1ccc(OC)c(=O)cc1[C@@H](NC(C)=O)CC2.O=C(O)C(O)C(O)C(=O)O | 0.11 µg/mL | 0.88 µg/mL | 0.16 µg/mL | 4% |  |  |
| COc1cc2c(c(OC)c1OC(=O)CN(C)C)-c1ccc(OC)c(=O)cc1[C@@H](NC(C)=O)CC2 | 0.04 µg/mL (≈ 0.085 µM) | 0.44 µg/mL (≈ 0.935 µM) |  |  | 5% | 0.09 µg/mL (≈ 0.191 µM) |
| COc1cc2c(c(OC)c1OC(=O)CN(C)C)-c1ccc(SC)c(=O)cc1C(NC(C)=O)CC2.O=C(O)C(O)C(O)C(=O)O (single isomer, unassigned; 5a) | 0.01 µg/mL | 0.06 µg/mL | 0.02 µg/mL | 28% |  |  |
| COc1cc2c(c(OC)c1O)-c1ccc(SC)c(=O)cc1[C@@H](NC(C)=O)CC2 | 0.01 µg/mL (≈ 0.0249 µM) | 0.01 µg/mL (≈ 0.0249 µM) | 0.01 µg/mL (≈ 0.0249 µM) |  | 56% |  |
| COc1cc2c(c(OC)c1O)-c1ccc(OC)c(=O)cc1[C@@H](NC(C)=O)CC2 [2-DESMETHYLCOLCHICIN] | 0.1 µg/mL (≈ 0.259 µM) | 0.1 µg/mL (≈ 0.259 µM) | 0.1 µg/mL (≈ 0.259 µM) |  | 24% |  |
| COc1cc2c(c(OC)c1OC(=O)CN(C)C)-c1ccc(SC)c(=O)cc1C(NC(C)=O)CC2 (single isomer, unassigned; 5) | 0.05 µg/mL (≈ 0.103 µM) | 0.05 µg/mL (≈ 0.103 µM) | 0.02 µg/mL (≈ 0.0411 µM) |  | 45% |  |
